{"source": "paper PMC5218480", "about": "(PLoS ONE, 2017)", "test_system": "MV-4-11 cells", "assay": "Gene expression microarray analysis (Affymetrix PrimeView) and GSEA", "format": "cell-based, human", "set-up": "RFU PODN (11730768_x_at) / Fold change /veh PODN (11730768_x_at) / RFU LINC00158 (11744669_a_at) / Fold change /veh LINC00158 (11744669_a_at) / RFU DUSP10 (11751237_a_at) / Fold change /veh DUSP10 (11751237_a_at) / RFU ID3 (11757404_x_at) / Fold change /veh ID3 (11757404_x_at) / RFU PLEKHG5 (11737974_s_at) / Fold change /veh PLEKHG5 (11737974_s_at) / RFU LRRC4B (11730491_at) / Fold change /veh LRRC4B (11730491_at) / RFU GIMAP4 (11747438_a_at) / Fold change /veh GIMAP4 (11747438_a_at) / RFU KRT8 (11758183_x_at) / Fold change /veh KRT8 (11758183_x_at) / RFU CNN1 (11734310_a_at) / Fold change /veh CNN1 (11734310_a_at) / RFU VPS37D (11726825_at) / Fold change /veh VPS37D (11726825_at) / RFU C10orf10 (11716522_x_at) / Fold change /veh C10orf10 (11716522_x_at) / RFU KIR2DL2 /// KIR2DL4 /// KIR2DL5A /// KIR2DL5B /// KIR2DS1 /// KIR2DS2 /// KIR2DS3 /// KIR2DS4 /// KIR3DL3 /// KIR3DL3 /// KIR3DS1 (11738374_at) / Fold change /veh KIR2DL2 /// KIR2DL4 /// KIR2DL5A /// KIR2DL5B /// KIR2DS1 /// KIR2DS2 /// KIR2DS3 /// KIR2DS4 /// KIR3DL3 /// KIR3DL3 /// KIR3DS1 (11738374_at) / RFU C1QL1 (11718748_at) / Fold change /veh C1QL1 (11718748_at) / RFU TMPRSS4 (11747572_a_at) / Fold change /veh TMPRSS4 (11747572_a_at) / RFU HAMP (11756126_x_at) / Fold change /veh HAMP (11756126_x_at) / RFU RNFT2 (11725882_a_at) / Fold change /veh RNFT2 (11725882_a_at) / RFU NR4A2 (11747474_a_at) / Fold change /veh NR4A2 (11747474_a_at) / RFU ABCC12 (11746883_a_at) / Fold change /veh ABCC12 (11746883_a_at) / RFU TMEM136 (11760407_x_at) / Fold change /veh TMEM136 (11760407_x_at) / RFU CLDN22 /// WWC2 (11732394_at) / Fold change /veh CLDN22 /// WWC2 (11732394_at) / RFU HLA-DPB1 (11760878_x_at) / Fold change /veh HLA-DPB1 (11760878_x_at) / RFU SPINT1 (11716480_a_at) / Fold change /veh SPINT1 (11716480_a_at) / RFU GAP43 (11754022_s_at) / Fold change /veh GAP43 (11754022_s_at) / RFU A4GNT (11735810_at) / Fold change /veh A4GNT (11735810_at) / RFU PRB3 (11715151_x_at) / Fold change /veh PRB3 (11715151_x_at) / RFU TUBB4B (11761932_at) / Fold change /veh TUBB4B (11761932_at) / RFU CAPN14 (11732068_a_at) / Fold change /veh CAPN14 (11732068_a_at) / RFU TMCC2 (11721928_a_at) / Fold change /veh TMCC2 (11721928_a_at) / RFU IRGQ (11745062_a_at) / Fold change /veh IRGQ (11745062_a_at) / RFU FAM174B (11720279_a_at) / Fold change /veh FAM174B (11720279_a_at) / RFU TMPRSS4 (11748680_a_at) / Fold change /veh TMPRSS4 (11748680_a_at) / RFU FAM212B (11763350_a_at) / Fold change /veh FAM212B (11763350_a_at) / RFU PLEKHG5 (11743358_a_at) / Fold change /veh PLEKHG5 (11743358_a_at) / RFU ZSCAN30 (11745921_a_at) / Fold change /veh ZSCAN30 (11745921_a_at) / RFU CMKLR1 (11741424_a_at) / Fold change /veh CMKLR1 (11741424_a_at) / RFU LOC101060620 /// MAPK8IP1 (11723275_at) / Fold change /veh LOC101060620 /// MAPK8IP1 (11723275_at) / RFU SPTSSB (11747773_x_at) / Fold change /veh SPTSSB (11747773_x_at) / RFU PRSS12 (11739890_at) / Fold change /veh PRSS12 (11739890_at) / RFU BIN1 (11741810_x_at) / Fold change /veh BIN1 (11741810_x_at) / RFU WNT11 (11732464_a_at) / Fold change /veh WNT11 (11732464_a_at) / RFU C10orf10 (11716521_a_at) / Fold change /veh C10orf10 (11716521_a_at) / RFU C5orf56 (11738089_at) / Fold change /veh C5orf56 (11738089_at) / RFU CYB561 (11721691_x_at) / Fold change /veh CYB561 (11721691_x_at) / RFU ANKRD19P (11752326_a_at) / Fold change /veh ANKRD19P (11752326_a_at) / RFU OR2T12 /// OR2T33 /// OR2T8 (11738714_s_at) / Fold change /veh OR2T12 /// OR2T33 /// OR2T8 (11738714_s_at) / RFU VCAN (11748164_a_at) / Fold change /veh VCAN (11748164_a_at) / RFU JSRP1 (11732532_at) / Fold change /veh JSRP1 (11732532_at) / RFU KRTAP10-11 (11738290_x_at) / Fold change /veh KRTAP10-11 (11738290_x_at) / RFU MYO3A (11730013_a_at) / Fold change /veh MYO3A (11730013_a_at) / RFU EBF3 (11725865_a_at) / Fold change /veh EBF3 (11725865_a_at) / RFU CAMK2N1 (11719241_x_at) / Fold change /veh CAMK2N1 (11719241_x_at) / RFU C5orf56 (11738088_a_at) / Fold change /veh C5orf56 (11738088_a_at) / RFU OLFML3 (11715873_a_at) / Fold change /veh OLFML3 (11715873_a_at) / RFU LOC100653217 /// NTM (11731650_a_at) / Fold change /veh LOC100653217 /// NTM (11731650_a_at) / RFU MAPK11 (11762145_a_at) / Fold change /veh MAPK11 (11762145_a_at) / RFU FIZ1 (11724087_x_at) / Fold change /veh FIZ1 (11724087_x_at) / RFU OASL (11726364_x_at) / Fold change /veh OASL (11726364_x_at) / RFU SOX15 (11748057_x_at) / Fold change /veh SOX15 (11748057_x_at) / RFU CD79A (11719716_a_at) / Fold change /veh CD79A (11719716_a_at) / RFU HIST1H1D (11736915_at) / Fold change /veh HIST1H1D (11736915_at) / RFU CASKIN2 (11723855_a_at) / Fold change /veh CASKIN2 (11723855_a_at) / RFU LOC730098 (11760151_x_at) / Fold change /veh LOC730098 (11760151_x_at) / RFU OR4N2 (11742367_at) / Fold change /veh OR4N2 (11742367_at) / RFU PRRT2 (11749266_a_at) / Fold change /veh PRRT2 (11749266_a_at) / RFU SNX32 (11753110_a_at) / Fold change /veh SNX32 (11753110_a_at) / RFU CDHR5 (11726645_a_at) / Fold change /veh CDHR5 (11726645_a_at) / RFU RCAN1 (11760418_a_at) / Fold change /veh RCAN1 (11760418_a_at) / RFU FAM167A (11723789_a_at) / Fold change /veh FAM167A (11723789_a_at) / RFU FAM26E (11764081_at) / Fold change /veh FAM26E (11764081_at) / RFU ISYNA1 (11749810_s_at) / Fold change /veh ISYNA1 (11749810_s_at) / RFU ACY1 (11761880_at) / Fold change /veh ACY1 (11761880_at) / RFU 11764098_at / Fold change /veh 11764098_at / RFU SAMD14 (11745864_x_at) / Fold change /veh SAMD14 (11745864_x_at) / RFU NPB (11741838_a_at) / Fold change /veh NPB (11741838_a_at) / RFU TMPRSS6 (11731388_a_at) / Fold change /veh TMPRSS6 (11731388_a_at) / RFU KRTAP10-2 (11738614_at) / Fold change /veh KRTAP10-2 (11738614_at) / RFU ARHGAP8 /// PRR5-ARHGAP8 (11727945_x_at) / Fold change /veh ARHGAP8 /// PRR5-ARHGAP8 (11727945_x_at) / RFU KRTAP5-7 /// NADSYN1 (11734609_at) / Fold change /veh KRTAP5-7 /// NADSYN1 (11734609_at) / RFU RASL12 (11751679_a_at) / Fold change /veh RASL12 (11751679_a_at) / RFU CDKN2B (11736163_a_at) / Fold change /veh CDKN2B (11736163_a_at) / RFU PRF1 (11729649_at) / Fold change /veh PRF1 (11729649_at) / RFU, ZNF638 /// ZNF638-IT1 / Fold change vs veh, ZNF638 /// ZNF638-IT1 / RFU, PANK3 / Fold change vs veh, PANK3 / RFU, SH3YL1 / Fold change vs veh, SH3YL1 / RFU, ZEB2 / Fold change vs veh, ZEB2 / RFU, NRIP1 / Fold change vs veh, NRIP1 / RFU, PTTG1IP / Fold change vs veh, PTTG1IP / RFU, CAPN2 / Fold change vs veh, CAPN2 / RFU, MED14 / Fold change vs veh, MED14 / RFU, SNORA58 / Fold change vs veh, SNORA58 / RFU, C1orf63 / Fold change vs veh, C1orf63 / RFU, LRRFIP1 / Fold change vs veh, LRRFIP1 / RFU, NDUFAF7 / Fold change vs veh, NDUFAF7 / RFU, SLC12A2 / Fold change vs veh, SLC12A2 / RFU, IBTK / Fold change vs veh, IBTK / RFU, ESF1 / Fold change vs veh, ESF1 / Fold change vs veh, TMEM50B / RFU, TAOK1 / Fold change vs veh, TAOK1 / RFU, ACBD3 / Fold change vs veh, ACBD3 / RFU, TMA16 / Fold change vs veh, TMA16 / RFU, RWDD3 / Fold change vs veh, RWDD3 / RFU, BCAT1 / Fold change vs veh, BCAT1 / RFU, EDEM3 / Fold change vs veh, EDEM3 / RFU, TMEM33 / Fold change vs veh, TMEM33 / RFU, WDR75 / Fold change vs veh, WDR75 / RFU, AHCTF1 / Fold change vs veh, AHCTF1 / RFU, TFRC / Fold change vs veh, TFRC / RFU, ZDHHC17 / Fold change vs veh, ZDHHC17 / RFU, NOM1 / Fold change vs veh, NOM1 / RFU, ARL8B / Fold change vs veh, ARL8B / RFU, ZBTB11 / Fold change vs veh, ZBTB11 / RFU, TAMM41 / Fold change vs veh, TAMM41 / RFU, KIAA1704 /// LOC100996395 / Fold change vs veh, KIAA1704 /// LOC100996395 / RFU, ING1 / Fold change vs veh, ING1 / RFU, TRMT61B / Fold change vs veh, TRMT61B / RFU, FUBP3 / Fold change vs veh, FUBP3 / RFU, TP53 / Fold change vs veh, TP53 / RFU, TNKS2 / Fold change vs veh, TNKS2 / RFU, ZFP14 / Fold change vs veh, ZFP14 / RFU, ACTR2 / Fold change vs veh, ACTR2 / RFU, PPP3R1 / Fold change vs veh, PPP3R1 / RFU, PIK3R1 / Fold change vs veh, PIK3R1 / RFU, HNRNPA1 / Fold change vs veh, HNRNPA1 / RFU, RNF170 / Fold change vs veh, RNF170 / RFU, ZNF28 / Fold change vs veh, ZNF28 / RFU, RNGTT / Fold change vs veh, RNGTT / RFU, OGT / Fold change vs veh, OGT / RFU, BRD1 / Fold change vs veh, BRD1 / RFU, MARS / Fold change vs veh, MARS / RFU, ZNF655 / Fold change vs veh, ZNF655 / RFU, FAHD1 / Fold change vs veh, FAHD1 / RFU, BDP1 / Fold change vs veh, BDP1 / RFU, LRRCC1 / Fold change vs veh, LRRCC1 / RFU, ARID1A / Fold change vs veh, ARID1A / RFU, ZNF146 / Fold change vs veh, ZNF146 / RFU, ZNF330 / Fold change vs veh, ZNF330 / RFU, GPN3 / Fold change vs veh, GPN3 / RFU, C9orf123 / Fold change vs veh, C9orf123 / RFU, N4BP2L2 / Fold change vs veh, N4BP2L2 / RFU, ARFIP1 / Fold change vs veh, ARFIP1 / RFU, FAM179B / Fold change vs veh, FAM179B / RFU, BCL10 / Fold change vs veh, BCL10 / RFU, UHRF1BP1L / Fold change vs veh, UHRF1BP1L / RFU, BET1 / Fold change vs veh, BET1 / RFU, CNOT2 / Fold change vs veh, CNOT2 / RFU, ZNF268 / Fold change vs veh, ZNF268 / Fold change vs veh, ZNF507 / RFU, DGCR2 / Fold change vs veh, DGCR2 / RFU, WDSUB1 / Fold change vs veh, WDSUB1 / Fold change vs veh, HSP90B1 /// MIR3652 / RFU, ADSS / Fold change vs veh, ADSS / RFU, GK / Fold change vs veh, GK / RFU, ZNF148 / Fold change vs veh, ZNF148 / RFU, TAF9 / Fold change vs veh, TAF9 / RFU, SLC1A5 / Fold change vs veh, SLC1A5 / RFU, SLMO2 / Fold change vs veh, SLMO2 / RFU, ABCC4 / Fold change vs veh, ABCC4 / RFU, LOC101060439 /// RAP1B / Fold change vs veh, LOC101060439 /// RAP1B / RFU, RFX7 / Fold change vs veh, RFX7 / RFU, GTPBP10 / Fold change vs veh, GTPBP10 / RFU, CNEP1R1 / Fold change vs veh, CNEP1R1 / RFU, BIVM-ERCC5 /// ERCC5 / Fold change vs veh, BIVM-ERCC5 /// ERCC5 / RFU, ILF3 / Fold change vs veh, ILF3 / RFU 11762660_at / Fold change /veh 11762660_at / RFU VCAN (11757783_s_at) / Fold change /veh VCAN (11757783_s_at) / RFU DDX43 (11728927_at) / Fold change /veh DDX43 (11728927_at) / RFU KRT8 (11758188_x_at) / Fold change /veh KRT8 (11758188_x_at) / RFU NKD1 (11759106_at) / Fold change /veh NKD1 (11759106_at) / RFU SRD5A1 (11742802_a_at) / Fold change /veh SRD5A1 (11742802_a_at) / RFU TPSAB1 /// TPSB2 (11721975_s_at) / Fold change /veh TPSAB1 /// TPSB2 (11721975_s_at) / RFU GSTM3 (11746129_a_at) / Fold change /veh GSTM3 (11746129_a_at) / RFU IL23R (11737362_x_at) / Fold change /veh IL23R (11737362_x_at) / RFU TMEM51 (11727254_a_at) / Fold change /veh TMEM51 (11727254_a_at) / RFU PIWIL2 (11732686_x_at) / Fold change /veh PIWIL2 (11732686_x_at) / RFU ORM1 (11744905_x_at) / Fold change /veh ORM1 (11744905_x_at) / RFU CCDC152 (11743942_at) / Fold change /veh CCDC152 (11743942_at) / RFU ECM1 (11717891_a_at) / Fold change /veh ECM1 (11717891_a_at) / RFU IL23R (11748794_a_at) / Fold change /veh IL23R (11748794_a_at) / RFU TNFAIP8L3 (11732012_x_at) / Fold change /veh TNFAIP8L3 (11732012_x_at) / RFU MBOAT4 (11741988_at) / Fold change /veh MBOAT4 (11741988_at) / RFU 11764193_at / Fold change /veh 11764193_at / RFU TMEM53 (11763286_at) / Fold change /veh TMEM53 (11763286_at) / RFU MAGEB2 (11727129_at) / Fold change /veh MAGEB2 (11727129_at) / RFU TMEM200A (11744735_a_at) / Fold change /veh TMEM200A (11744735_a_at) / RFU CCDC152 (11751479_a_at) / Fold change /veh CCDC152 (11751479_a_at) / RFU FAM211A (11726209_a_at) / Fold change /veh FAM211A (11726209_a_at) / RFU RGS16 (11746705_a_at) / Fold change /veh RGS16 (11746705_a_at) / RFU VCAN (11755009_s_at) / Fold change /veh VCAN (11755009_s_at) / RFU RHOB (11743442_s_at) / Fold change /veh RHOB (11743442_s_at) / RFU RGS16 (11720943_a_at) / Fold change /veh RGS16 (11720943_a_at) / RFU RGS16 (11720944_at) / Fold change /veh RGS16 (11720944_at) / RFU, VPS4B / Fold change vs veh, VPS4B / RFU, CREB1 / Fold change vs veh, CREB1 / RFU, DNAJC13 / Fold change vs veh, DNAJC13 / RFU, GNAQ / Fold change vs veh, GNAQ / RFU, CDK5R1 / Fold change vs veh, CDK5R1 / RFU, ZRANB3 / Fold change vs veh, ZRANB3 / RFU, CUL4A / Fold change vs veh, CUL4A / RFU, CCNY / Fold change vs veh, CCNY / RFU, UFL1 / Fold change vs veh, UFL1 / RFU, COG3 / Fold change vs veh, COG3 / RFU, DIAPH2 / Fold change vs veh, DIAPH2 / RFU, SKA2 / Fold change vs veh, SKA2 / RFU, AFF3 / Fold change vs veh, AFF3 / RFU, LMF1 / Fold change vs veh, LMF1 / RFU, IPO11 / Fold change vs veh, IPO11 / RFU, DFFB / Fold change vs veh, DFFB / RFU, FOXP1 / Fold change vs veh, FOXP1 / RFU, CARD8 / Fold change vs veh, CARD8 / RFU, STRN3 / Fold change vs veh, STRN3 / RFU, ADK / Fold change vs veh, ADK / RFU, RASSF2 / Fold change vs veh, RASSF2 / RFU, WIPF1 / Fold change vs veh, WIPF1 / RFU, LARP1B / Fold change vs veh, LARP1B / RFU, RASA1 / Fold change vs veh, RASA1 / RFU, RB1 / Fold change vs veh, RB1 / RFU, PPFIA1 / Fold change vs veh, PPFIA1 / RFU, MAT2A / Fold change vs veh, MAT2A / RFU, CCT5 / Fold change vs veh, CCT5 / RFU, WDR92 / Fold change vs veh, WDR92 / RFU, CUX1 / Fold change vs veh, CUX1 / RFU, TTC7A / Fold change vs veh, TTC7A / RFU, TMEM135 / Fold change vs veh, TMEM135 / RFU, DEPTOR / Fold change vs veh, DEPTOR / RFU, CPM / Fold change vs veh, CPM / RFU, DNAJB6 / Fold change vs veh, DNAJB6 / RFU, CACNA2D3 / Fold change vs veh, CACNA2D3 / RFU, DTX4 / Fold change vs veh, DTX4 / RFU, TFCP2 / Fold change vs veh, TFCP2 / RFU, GMCL1 /// GMCL1P1 / Fold change vs veh, GMCL1 /// GMCL1P1 / RFU, AEBP2 / Fold change vs veh, AEBP2 / RFU, SNHG1 /// SNORD22 /// SNORD25 /// SNORD26 /// SNORD27 /// SNORD28 /// SNORD29 /// SNORD31 / Fold change vs veh, SNHG1 /// SNORD22 /// SNORD25 /// SNORD26 /// SNORD27 /// SNORD28 /// SNORD29 /// SNORD31 / Fold change (Aza/veh), C12orf56 (ProbeSet 11735607_a_at) / Fold change (ACY-1035/veh), C12orf56 (ProbeSet 11735607_a_at) / Fold change (Aza/veh), FGFR1OP (ProbeSet 11751329_s_at) / Fold change (ACY-1035/veh), FGFR1OP (ProbeSet 11751329_s_at) / Fold change (Aza/veh), VPS36 (ProbeSet 11739960_a_at) / Fold change (ACY-1035/veh), VPS36 (ProbeSet 11739960_a_at) / RFU SYPL1 (11715823_x_at) / Fold change /veh SYPL1 (11715823_x_at) / RFU IGFBP7 (11715501_s_at) / Fold change /veh IGFBP7 (11715501_s_at) / RFU REEP3 (11722064_at) / Fold change /veh REEP3 (11722064_at) / RFU IGLL1 (11728026_x_at) / Fold change /veh IGLL1 (11728026_x_at): dose or concentration left out as unconfirmed", "conditions": "MV-4-11 cells, 48 hours"}
{"molecule": "Nc1ccc(-c2cccs2)cc1NC(=O)c1ccc2c(c1)cc(C1CC1)n2CCN1CCOCC1", "note": "[ACY-1035]", "values": [{"measurement": "Fold change /veh OASL (11726364_x_at)", "result": 1.03}]}
